The target in assay [1] is T1, human B1R receptor (hB1R) (Homo sapiens, UniProt P46663).
T1 construct: expressed in transfected cells; host or cells: CHO K1 cells
T1 sequence (P46663 1-353): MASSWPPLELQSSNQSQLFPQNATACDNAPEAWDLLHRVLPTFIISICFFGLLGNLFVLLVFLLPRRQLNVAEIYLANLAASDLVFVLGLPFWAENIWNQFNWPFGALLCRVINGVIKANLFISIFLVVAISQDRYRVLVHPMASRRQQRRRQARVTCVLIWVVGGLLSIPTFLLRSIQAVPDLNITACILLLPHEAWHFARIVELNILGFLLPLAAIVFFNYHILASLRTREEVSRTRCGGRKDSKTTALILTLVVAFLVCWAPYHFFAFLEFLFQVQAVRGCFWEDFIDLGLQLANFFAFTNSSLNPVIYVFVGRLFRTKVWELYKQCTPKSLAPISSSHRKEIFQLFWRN
Kind of assay: Functional investigation on the bradykinin receptor 1 (B1R), FLIPR Ca2+ assay, hB1R cells. The format is cell-based. How it is done: (§1) The agonistic or antagonistic action of substances can be quantified on the bradykinin receptor 1 (B1R) of the human and rat species with ectopically expressing cell lines (CHO K1 cells) and with the aid of a Ca^2+-sensitive dyestuff (Fluo-4) in a fluorescent imaging plate reader (FLIPR). The figure in % activation is based on the Ca^2+ signal after addition of Lys-Des-Arg^9-bradykinin (0.5 nM) or Des-Arg^9-bradykinin (100 nM). Antagonists lead to a suppression of the Ca^2+ inflow after addition of the agonist. % inhibition compared with the maximum achievable inhibition is stated.
(§2) The agonistic or antagonistic action of substances can be determined on the bradykinin receptor 1 (B1R) of the human and rat species with the following assay. In accordance with this assay, the Ca^2+ inflow through the channel is quantified with the aid of a Ca^2+-sensitive dyestuff (type Fluo-4, Molecular Probes Europe BV, Leiden Holland) in a fluorescent imaging plate reader (FLIPR, Molecular Devices, Sunnyvale, USA).
(§3) Chinese hamster ovary cells (CHO K1 cells) transfected stably with the human B1R gene (hB1R cells) or the B1R gene of the rat (rB1R cells) are used. For functional studies, these cells are plated out on black 96-well plates with a clear base (BD Biosciences, Heidelberg, Germany or Greiner, Frickenhausen, Germany) in a density of 20,000-35,000 cells/well. The cells are left overnight at 37° C. and 5% CO2 in culture medium (hB1R cells: Nutrient Mixture Ham's F12, Gibco Invitrogen GmbH, Karlsruhe, Germany or DMEM, Sigma-Aldrich, Taufkirchen, Germany; rB1R cells: D-MEM/F12, Gibco Invitrogen GmbH, Karlsruhe, Germany) with 10 vol. % FBS (foetal bovine serum, Gibco Invitrogen GmbH, Karlsruhe, Germany or PAN Biotech GmbH, Aidenbach, Germany). On the following day, the cells are loaded for 60 min at 37° C. with 2.13 μM Fluo-4 (Molecular Probes Europe BV, Leiden Holland) in HBSS buffer (Hank's buffered saline solution, Gibco Invitrogen GmbH, Karlsruhe, Germany) with 2.5 mM probenecid (Sigma-Aldrich, Taufkirchen, Germany) and 10 mM HEPES (Sigma-Aldrich, Taufkirchen, Germany). The plates are then washed 2× with HBSS buffer, and HBSS buffer which additionally contains 0.1% BSA (bovine serum albumin; Sigma-Aldrich, Taufkirchen, Germany), 5.6 mM glucose and 0.05% gelatine (Merck KGaA, Darmstadt, Germany) is added. After a further incubation of 20 minutes at room temperature, the plates are inserted into the FLIPR for the Ca^2+ measurement.
(§4) Alternatively, the plates are washed with buffer A (15 mM HEPES, 80 mM NaCl, 5 mM KCl, 1.2 mM CaCl2, 0.7 mM MgSO4, 2 g/l glucose, 2.5 mM probenecid), buffer A is added and the plates are loaded with 2.5 μM Fluo-4 and 0.025% Pluronic F127 (Sigma-Aldrich, Taufkirchen, Germany). Thereafter, the cells are washed 2× with buffer A and incubated for 30 minutes at room temperature with buffer A, which additionally contains 0.05% BSA and 0.05% gelatine, and thereafter inserted into the FLIPR for the Ca^2+ measurement.
(§5) The Ca^2+-dependent fluorescence is measured here before and after addition of substances (λex=488 nm, λem=540 nm). Quantification is by measurement of the highest fluorescence intensity (FC, fluorescence counts) over time.
(§6) The FLIPR protocol consists of 2 additions of substance. Test substances (10 μM) are first pipetted on to the cells and the Ca^2+ inflow is compared with the control (hB1R: Lys-Des-Arg^9-bradykinin>=50 nM; rB1R: Des-Arg^9-bradykinin 10 μM). This gives the result in % activation based on the Ca^2+ signal after addition of Lys-Des-Arg^9-bradykinin (>=50 nM) or Des-Arg^9-bradykinin (10 μM). After incubation for 10-20 minutes, Lys-Des-Arg^9-bradykinin (hB1R) or Des-Arg^9-bradykinin (rB1R) in the concentration of the EC80 is applied and the inflow of Ca^2+ is likewise determined. Antagonists lead to a suppression of the Ca^2+ inflow. % inhibition compared with the maximum achievable inhibition is calculated.
(§7) In order to determine the IC50 value, the substances are added in various concentrations. […]

The target of assay [2] is T2, B1R receptor of the rat (rB1R) (Rattus norvegicus, UniProt P97583).
T2 construct: expressed in transfected cells; host or cells: CHO K1 cells
T2 sequence (P97583 1-337): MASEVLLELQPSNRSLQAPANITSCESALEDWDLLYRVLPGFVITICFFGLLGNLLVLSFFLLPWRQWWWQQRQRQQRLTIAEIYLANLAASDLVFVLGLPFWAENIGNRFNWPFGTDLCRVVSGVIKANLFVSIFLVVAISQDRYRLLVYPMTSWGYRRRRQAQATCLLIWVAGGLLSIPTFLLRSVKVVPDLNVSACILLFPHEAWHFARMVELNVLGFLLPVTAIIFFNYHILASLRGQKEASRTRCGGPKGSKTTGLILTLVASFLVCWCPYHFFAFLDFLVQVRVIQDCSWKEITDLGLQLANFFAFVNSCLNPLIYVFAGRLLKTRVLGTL
Briefly: Functional investigation on the bradykinin receptor 1 (B1R), FLIPR Ca2+ assay, rB1R cells. The class given is cell-based. How it is done:
as §1, §2, §3, §4, §5, §6, §7

Molecules are shown by their SMILES. Structures can show the parent of a compound that is named as a salt.

Broadly, the inhibition is the change of the read-out against control, counted positive when it falls. On to `COc1cc(C)c(S(=O)(=O)N(C)Cc2nc3cccc(C(=O)N4CCC5(CCN(c6ccncc6)CC5)C4)c3[nH]2)c(C)c1` [I_09, 4-methoxy-N,2,6-trimethyl-N-[[7-(8-pyridin-4-yl-3,8-diazaspiro[4.5]decane-3-carbonyl)-1H-benzoimidazol-2-yl]-methyl]-benzenesulfonic acid amide], for which the values for the inhibition at 10 µM in assay [1] and in assay [2] were 99% and 104%, respectively.

With `COc1cc(C)c(S(=O)(=O)N(C)Cc2nc3cccc(C(=O)N4CCC5(CCN(c6ccncc6)C5)C4)c3[nH]2)c(C)c1` (centres unmarked) [I_10, 4-methoxy-N,2,6-trimethyl-N-[[7-(8-pyridin-4-yl-3,8-diazaspiro[4.4]nonane-3-carbonyl)-1H-benzoimidazol-2-yl]-methyl]-benzenesulfonic acid amide], the inhibition at 10 µM in assay [1] is 100%; in assay [2] it was 104%.

For `CN(Cc1nc2cccc(C(=O)N3CCC4(CC3)CCN(c3ccncc3)CC4)c2[nH]1)S(=O)(=O)c1ccc(OC(F)(F)F)cc1Cl` [I_11, 2-chloro-N-methyl-N-[[7-(9-pyridin-4-yl-3,9-diazaspiro[5.5]undecane-3-carbonyl)-1H-benzoimidazol-2-yl]-methyl]-4-(trifluoromethyloxy)-benzenesulfonic acid amide hydrochloride], the inhibition at 10 µM in assay [1] and in assay [2] was 99% throughout.

With `COc1cc(C)c(S(=O)(=O)N(C)C2(c3nc4cccc(C(=O)N5CCC6(CC5)CCN(c5ccncc5)CC6)c4[nH]3)CC2)c(C)c1` [I_12, 4-methoxy-N,2,6-trimethyl-N-[1-[7-(9-pyridin-4-yl-3,9-diazaspiro[5.5]undecane-3-carbonyl)-1H-benzoimidazol-2-yl]-cyclopropyl]-benzenesulfonic acid amide], the values for the inhibition at 10 µM in assay [1] and in assay [2] were 98% and 92%, respectively.

As for `COc1cc(C)c(S(=O)(=O)N(C)Cc2nc3ccc(F)c(C(=O)N4CCC5(CC4)CCN(c4ccncc4)CC5)c3[nH]2)c(C)c1` [I_13, N-[[6-fluoro-7-(9-pyridin-4-yl-3,9-diazaspiro[5.5]undecane-3-carbonyl)-1H-benzoimidazol-2-yl]-methyl]-4-methoxy-N,2,6-trimethyl-benzenesulfonic acid amide], the inhibition at 10 µM in assay [1] stood at 98%; in assay [2], 93%.

For `COc1cc(C)c(S(=O)(=O)N(Cc2nc3cccc(C(=O)N4CCC5(CC4)CCN(c4ccncc4)CC5)c3[nH]2)C2CC2)c(C)c1` [I_14, N-cyclopropyl-4-methoxy-2,6-dimethyl-N-[[7-(9-pyridin-4-yl-3,9-diazaspiro[5.5]undecane-3-carbonyl)-1H-benzoimidazol-2-yl]-methyl]-benzenesulfonic acid amide], the inhibition at 10 µM in assay [1] came out at 99%; in assay [2], 95%.

`COc1cc(C)c(S(=O)(=O)N(C)Cc2nc3cccc(CN4CCC5(CC4)CCN(c4ccncc4)CC5)c3[nH]2)c(C)c1` [I_15, 4-methoxy-N,2,6-trimethyl-N-[[7-[(9-pyridin-4-yl-3,9-diazaspiro[5.5]undecan-3-yl)-methyl]-1H-benzoimidazol-2-yl]-methyl]-benzenesulfonic acid amide]: the results for the inhibition at 10 µM in assay [1] and in assay [2] were 100% and 103%, respectively.

On to `CN(Cc1nc2cccc(C(=O)N3CCC4(CC3)CCN(c3ccncc3)CC4)c2[nH]1)C(=O)c1ccc(Cl)s1` [I_16, 5-chloro-N-methyl-N-[[7-(9-pyridin-4-yl-3,9-diazaspiro[5.5]undecane-3-carbonyl)-1H-benzoimidazol-2-yl]-methyl]-thiophene-2-carboxylic acid amide], for which the figures for the inhibition at 10 µM in assay [1] and in assay [2] were 91% and 105%, respectively.

Take `Cc1ccc(Cl)c(S(=O)(=O)N(C)Cc2nc3cccc(C(=O)N4CCC5(CC4)CCN(c4ccncc4)CC5)c3[nH]2)c1Cl` [I_17, 2,6-dichloro-N,3-dimethyl-N-[[7-(9-pyridin-4-yl-3,9-diazaspiro[5.5]undecane-3-carbonyl)-1H-benzoimidazol-2-yl]-methyl]-benzenesulfonic acid amide]: the inhibition at 10 µM is 95% in assay [1] and 24% in assay [2].

As to `COc1cc(C)c(S(=O)(=O)N2CCCCC2c2nc3cccc(C(=O)N4CCC5(CC4)CCN(c4ccncc4)CC5)c3[nH]2)c(C)c1` (centres unmarked) [I_18, [2-[1-[(4-methoxy-2,6-dimethyl-phenyl)sulfonyl]-piperidin-2-yl]-3H-benzoimidazol-4-yl]-(9-pyridin-4-yl-3,9-diazaspiro[5.5]undecan-3-yl)-methanone], the inhibition at 10 µM in assay [1] came to 97%; in assay [2] it was 49%.

For `COc1cc(C)c(S(=O)(=O)N2CCCC2c2nc3cccc(C(=O)N4CCC5(CC4)CCN(c4ccncc4)CC5)c3[nH]2)c(C)c1` (centres unmarked) [I_19, [2-[1-[(4-methoxy-2,6-dimethyl-phenyl)sulfonyl]-pyrrolidin-2-yl]-3H-benzoimidazol-4-yl]-(9-pyridin-4-yl-3,9-diazaspiro[5.5]undecan-3-yl)-methanone], the inhibition at 10 µM in assay [1] was 100%; in assay [2], 76%.

Regarding `COc1cc(C)c(S(=O)(=O)N(C)Cc2nc3c(C(=O)N4CCC5(CC4)CCN(c4ccncc4)CC5)cccc3n2C)c(C)c1` [I_20, 4-methoxy-N,2,6-trimethyl-N-[[1-methyl-4-(9-pyridin-4-yl-3,9-diazaspiro[5.5]undecane-3-carbonyl)-1H-benzoimidazol-2-yl]-methyl]-benzenesulfonic acid amide], the inhibition at 10 µM in assay [1] stood at 98%; in assay [2], 30%.

As for `COc1cc(C)c(S(=O)(=O)N(C)Cc2nc3cccc(CC(=O)N4CCC5(CC4)CCN(c4ccncc4)CC5)c3[nH]2)c(C)c1` [I_21, 4-methoxy-N,2,6-trimethyl-N-[[7-[2-oxo-2-(9-pyridin-4-yl-3,9-diazaspiro[5.5]undecan-3-yl)-ethyl]-1H-benzoimidazol-2-yl]-methyl]-benzenesulfonic acid amide], the inhibition at 10 µM in assay [1] came out at 99%; in assay [2] it was 55%.
